Measured values published in ChEMBL document CHEMBL1201862, “PubChem BioAssay data set” (2004).
Active and inactive are the calls of the source.

Legend:
[1] = biological target: T1, Cytochrome P450 1A2 (Homo sapiens, UniProt P05177);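 also: PubChem cytochrome P450 panel assay, CYP1A2 panel member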
T1 sequence (P05177 whole entry): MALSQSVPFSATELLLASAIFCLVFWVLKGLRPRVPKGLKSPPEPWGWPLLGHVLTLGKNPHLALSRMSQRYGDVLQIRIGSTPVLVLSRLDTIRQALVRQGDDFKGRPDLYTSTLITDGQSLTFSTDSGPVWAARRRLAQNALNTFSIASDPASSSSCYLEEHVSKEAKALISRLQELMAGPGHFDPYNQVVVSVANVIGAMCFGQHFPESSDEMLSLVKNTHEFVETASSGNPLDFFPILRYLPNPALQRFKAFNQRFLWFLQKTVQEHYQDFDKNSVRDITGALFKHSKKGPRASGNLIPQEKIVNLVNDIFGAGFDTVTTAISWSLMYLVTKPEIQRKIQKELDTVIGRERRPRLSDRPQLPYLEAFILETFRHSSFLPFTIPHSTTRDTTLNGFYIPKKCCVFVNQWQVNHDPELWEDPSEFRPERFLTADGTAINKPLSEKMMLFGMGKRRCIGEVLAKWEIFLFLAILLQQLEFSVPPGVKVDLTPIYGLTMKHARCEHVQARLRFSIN

[2] = biological target: Beta-2 adrenergic receptor (Homo sapiens, UniProt P07550); test: ADRB2 activation measured by internalization – cell-based, FAP fluorogen, flow cytometry, cherry pick 1, dose response (AID 588763); assay type: functional
Beta-2 adrenergic receptor, sequence (P07550 whole entry): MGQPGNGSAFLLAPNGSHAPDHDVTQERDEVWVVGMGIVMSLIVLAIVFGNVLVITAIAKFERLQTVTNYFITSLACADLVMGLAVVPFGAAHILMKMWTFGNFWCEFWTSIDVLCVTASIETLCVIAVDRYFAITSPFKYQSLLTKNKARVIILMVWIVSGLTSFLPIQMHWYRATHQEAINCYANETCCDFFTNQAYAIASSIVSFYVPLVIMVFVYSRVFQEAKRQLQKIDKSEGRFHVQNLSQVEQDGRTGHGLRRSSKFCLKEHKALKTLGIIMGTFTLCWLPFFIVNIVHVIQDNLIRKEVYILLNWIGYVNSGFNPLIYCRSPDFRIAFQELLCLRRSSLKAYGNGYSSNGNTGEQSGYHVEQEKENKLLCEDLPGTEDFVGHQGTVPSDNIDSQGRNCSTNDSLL

[3] = biological target: Cytochrome P450 2C9 (Homo sapiens, UniProt P11712)
Cytochrome P450 2C9, sequence (P11712 whole entry): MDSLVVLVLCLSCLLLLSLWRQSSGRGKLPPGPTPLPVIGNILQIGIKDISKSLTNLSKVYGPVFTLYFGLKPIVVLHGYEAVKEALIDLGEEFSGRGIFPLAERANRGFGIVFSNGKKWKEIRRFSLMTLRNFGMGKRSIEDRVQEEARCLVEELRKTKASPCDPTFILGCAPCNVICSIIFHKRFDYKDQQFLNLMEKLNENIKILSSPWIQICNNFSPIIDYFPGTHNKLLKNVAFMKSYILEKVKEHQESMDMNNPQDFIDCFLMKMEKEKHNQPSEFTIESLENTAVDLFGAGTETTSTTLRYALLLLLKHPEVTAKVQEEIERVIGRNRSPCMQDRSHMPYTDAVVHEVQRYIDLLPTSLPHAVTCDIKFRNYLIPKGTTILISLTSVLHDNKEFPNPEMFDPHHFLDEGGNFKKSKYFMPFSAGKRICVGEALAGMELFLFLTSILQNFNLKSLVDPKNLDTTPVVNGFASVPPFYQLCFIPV

[4] = biological target: T2, Sentrin-specific protease 6 (Homo sapiens, UniProt Q9GZR1); test: SAR Analysis of small molecule inhibitors of Sentrin-specific protease 6 (SENP6) using a Luminescent assay. [Related pubchem assays (depositor defined):AID2582, AID2599]; assay type: functional
T2 sequence (Q9GZR1 whole entry): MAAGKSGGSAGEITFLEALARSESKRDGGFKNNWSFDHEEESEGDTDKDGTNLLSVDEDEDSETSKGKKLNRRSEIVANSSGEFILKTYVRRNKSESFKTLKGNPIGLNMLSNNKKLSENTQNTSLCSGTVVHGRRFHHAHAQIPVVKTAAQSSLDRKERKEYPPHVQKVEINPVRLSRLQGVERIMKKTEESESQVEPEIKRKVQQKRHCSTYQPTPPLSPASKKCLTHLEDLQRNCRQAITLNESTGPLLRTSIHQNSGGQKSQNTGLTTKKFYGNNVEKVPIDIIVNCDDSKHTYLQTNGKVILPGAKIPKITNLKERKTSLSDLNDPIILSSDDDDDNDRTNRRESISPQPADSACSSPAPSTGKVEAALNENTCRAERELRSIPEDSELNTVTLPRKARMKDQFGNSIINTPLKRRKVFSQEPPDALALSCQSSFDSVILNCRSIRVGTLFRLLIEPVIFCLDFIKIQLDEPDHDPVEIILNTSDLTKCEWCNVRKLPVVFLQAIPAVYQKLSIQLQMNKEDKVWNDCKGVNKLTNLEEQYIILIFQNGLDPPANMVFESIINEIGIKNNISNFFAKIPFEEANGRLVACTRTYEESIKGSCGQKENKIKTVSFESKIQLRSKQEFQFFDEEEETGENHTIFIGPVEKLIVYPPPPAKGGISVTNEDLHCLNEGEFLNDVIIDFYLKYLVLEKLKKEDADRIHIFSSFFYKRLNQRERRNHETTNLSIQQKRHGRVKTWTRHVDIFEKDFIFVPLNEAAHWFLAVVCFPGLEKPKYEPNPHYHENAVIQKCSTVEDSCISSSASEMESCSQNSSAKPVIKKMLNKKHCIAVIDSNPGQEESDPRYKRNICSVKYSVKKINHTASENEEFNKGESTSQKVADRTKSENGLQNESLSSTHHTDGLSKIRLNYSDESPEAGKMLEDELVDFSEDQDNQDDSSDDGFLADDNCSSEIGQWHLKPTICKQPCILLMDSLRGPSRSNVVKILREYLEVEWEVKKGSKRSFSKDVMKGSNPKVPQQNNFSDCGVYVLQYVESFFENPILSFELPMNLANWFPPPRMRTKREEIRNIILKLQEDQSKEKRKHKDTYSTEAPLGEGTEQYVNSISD

[5] = biological target: T3, Sentrin-specific protease 8 (Homo sapiens, UniProt Q96LD8); test: inhibition of human SENP8 cleavage activity – biochemical, luminescence, SAR follow-up (AID 504501); assay type: functional
T3 sequence (Q96LD8 whole entry): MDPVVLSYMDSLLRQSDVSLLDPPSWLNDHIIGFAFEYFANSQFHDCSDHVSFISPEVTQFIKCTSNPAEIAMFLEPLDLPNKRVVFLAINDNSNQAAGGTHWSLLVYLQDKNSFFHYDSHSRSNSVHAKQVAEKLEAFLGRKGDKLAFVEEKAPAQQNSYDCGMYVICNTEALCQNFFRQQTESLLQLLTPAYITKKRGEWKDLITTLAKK

[6] = biological target: T4, Sentrin-specific protease 7 (Homo sapiens, UniProt Q9BQF6); test: inhibition of human SENP7 cleavage activity – biochemical, luminescence, SAR follow-up (AID 504497); assay type: functional
T4 sequence (Q9BQF6 whole entry): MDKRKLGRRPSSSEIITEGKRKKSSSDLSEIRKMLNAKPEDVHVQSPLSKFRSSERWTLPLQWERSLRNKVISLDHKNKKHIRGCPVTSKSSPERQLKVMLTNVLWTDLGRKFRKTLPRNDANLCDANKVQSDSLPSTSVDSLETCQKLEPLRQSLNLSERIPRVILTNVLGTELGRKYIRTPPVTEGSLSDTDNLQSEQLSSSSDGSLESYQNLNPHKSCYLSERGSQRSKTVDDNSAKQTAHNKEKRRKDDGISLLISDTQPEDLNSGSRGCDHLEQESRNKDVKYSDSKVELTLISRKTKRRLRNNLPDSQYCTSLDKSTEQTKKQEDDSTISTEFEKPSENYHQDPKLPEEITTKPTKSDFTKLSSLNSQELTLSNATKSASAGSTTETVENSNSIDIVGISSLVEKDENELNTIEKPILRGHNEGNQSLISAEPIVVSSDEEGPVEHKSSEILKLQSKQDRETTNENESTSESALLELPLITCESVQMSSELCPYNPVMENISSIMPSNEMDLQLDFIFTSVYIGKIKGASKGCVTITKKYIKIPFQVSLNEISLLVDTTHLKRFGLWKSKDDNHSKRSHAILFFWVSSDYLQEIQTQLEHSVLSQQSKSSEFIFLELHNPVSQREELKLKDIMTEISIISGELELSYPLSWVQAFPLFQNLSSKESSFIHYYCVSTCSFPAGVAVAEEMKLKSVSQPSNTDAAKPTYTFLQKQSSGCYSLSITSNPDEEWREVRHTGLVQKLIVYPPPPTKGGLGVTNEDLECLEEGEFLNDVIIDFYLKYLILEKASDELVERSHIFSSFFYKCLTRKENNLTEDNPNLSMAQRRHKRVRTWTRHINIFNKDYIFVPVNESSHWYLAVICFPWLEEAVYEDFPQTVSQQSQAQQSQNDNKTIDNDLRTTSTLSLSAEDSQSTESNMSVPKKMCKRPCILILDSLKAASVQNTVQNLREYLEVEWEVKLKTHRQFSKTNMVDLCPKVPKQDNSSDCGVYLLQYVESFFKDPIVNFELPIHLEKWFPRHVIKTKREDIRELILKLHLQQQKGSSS

[7] = biological target: T5, Caspase-3 (Homo sapiens, UniProt P42574); test: SAR Analysis of small molecule inhibitors of Sentrin-specific proteases (SENPs) using a Caspase-3 Selectivity assay. [Related pubchem assays (depositor defined):AID2540, AID2599, AID434973, AID489001]; assay type: functional
T5 sequence (P42574 whole entry): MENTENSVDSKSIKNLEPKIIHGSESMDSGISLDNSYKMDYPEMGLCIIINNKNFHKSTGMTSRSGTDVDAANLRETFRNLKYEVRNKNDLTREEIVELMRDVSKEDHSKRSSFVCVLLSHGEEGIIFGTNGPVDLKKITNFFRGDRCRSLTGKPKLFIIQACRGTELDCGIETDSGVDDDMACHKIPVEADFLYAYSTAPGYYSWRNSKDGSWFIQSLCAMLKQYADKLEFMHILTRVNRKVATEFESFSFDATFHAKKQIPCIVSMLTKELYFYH

[8] = biological target: T6, Insulin-degrading enzyme (Homo sapiens, UniProt P14735); test: cellular IDE activation of Abeta substrate cleavage – fluorescence polarization, HEK cells, dose response (AID 588439); assay type: functional, cell-based
T6 sequence (P14735 whole entry): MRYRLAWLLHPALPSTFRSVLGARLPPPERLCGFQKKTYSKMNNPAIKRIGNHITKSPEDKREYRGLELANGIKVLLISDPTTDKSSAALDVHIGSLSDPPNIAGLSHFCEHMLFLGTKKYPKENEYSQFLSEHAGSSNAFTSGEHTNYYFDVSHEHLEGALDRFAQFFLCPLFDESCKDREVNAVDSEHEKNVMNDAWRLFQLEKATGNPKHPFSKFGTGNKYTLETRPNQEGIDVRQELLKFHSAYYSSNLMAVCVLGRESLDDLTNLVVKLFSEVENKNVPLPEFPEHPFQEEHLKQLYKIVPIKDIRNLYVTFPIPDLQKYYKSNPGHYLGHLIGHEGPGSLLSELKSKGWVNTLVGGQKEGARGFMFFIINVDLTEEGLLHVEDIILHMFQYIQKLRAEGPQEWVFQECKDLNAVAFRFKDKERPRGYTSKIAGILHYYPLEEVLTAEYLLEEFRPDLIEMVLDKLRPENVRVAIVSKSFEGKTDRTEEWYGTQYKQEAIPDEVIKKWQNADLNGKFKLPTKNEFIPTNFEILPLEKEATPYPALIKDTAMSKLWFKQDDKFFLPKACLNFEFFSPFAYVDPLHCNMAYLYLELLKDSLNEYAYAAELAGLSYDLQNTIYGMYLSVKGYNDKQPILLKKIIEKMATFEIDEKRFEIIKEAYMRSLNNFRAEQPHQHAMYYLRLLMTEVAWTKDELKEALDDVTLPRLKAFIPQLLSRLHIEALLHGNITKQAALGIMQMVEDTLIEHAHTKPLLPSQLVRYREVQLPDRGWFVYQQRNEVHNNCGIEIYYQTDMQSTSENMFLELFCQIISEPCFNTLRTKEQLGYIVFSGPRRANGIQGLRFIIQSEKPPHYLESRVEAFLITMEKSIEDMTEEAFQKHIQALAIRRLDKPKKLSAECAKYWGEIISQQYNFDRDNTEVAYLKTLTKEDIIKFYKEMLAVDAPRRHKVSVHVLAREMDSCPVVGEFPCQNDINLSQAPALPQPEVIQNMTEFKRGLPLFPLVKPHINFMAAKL

[9] = system: HEK293; test: membrane integrity loss in HEK cells – cell-based, fluorescence, cytotoxicity control for IDE activator project, dose response (AID 588440); assay type: functional; conditions: Homo sapiens;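 also: cytotoxicity by LDH release measuring loss of membrane integrity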
[10] = biological target: T6, Insulin-degrading enzyme; test: recombinant IDE activation, cell-free – biochemical, fluorescence polarization, counter-screen for IDE activator project, dose response (AID 588681)
[11] = system: HEK293; test: optical interference in Abeta FP readout, dose response, artefact control for IDE activator project, biochemical, fluorescence polarization (AID 588442); assay type: functional, cell-based; conditions: Homo sapiens
[12] = biological target: T7, Neuropeptides B/W receptor type 1 (Homo sapiens, UniProt P48145); test: human NPBW1 receptor blockade, IC50 – cell-based, fluorescence, dose response, set 6, late-stage follow-up (AID 588583); assay type: functional
T7 sequence (P48145 whole entry): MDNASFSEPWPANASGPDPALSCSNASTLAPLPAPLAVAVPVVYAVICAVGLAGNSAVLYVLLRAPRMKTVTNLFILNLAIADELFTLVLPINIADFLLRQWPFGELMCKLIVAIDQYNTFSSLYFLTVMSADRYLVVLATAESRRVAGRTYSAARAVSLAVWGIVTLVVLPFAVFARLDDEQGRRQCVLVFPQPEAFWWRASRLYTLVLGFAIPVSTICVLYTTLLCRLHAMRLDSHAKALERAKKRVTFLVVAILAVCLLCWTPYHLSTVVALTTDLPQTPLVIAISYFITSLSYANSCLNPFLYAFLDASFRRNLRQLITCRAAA

[13] = biological target: Melanin-concentrating hormone receptor 1 (Homo sapiens, UniProt Q99705); test: Late-stage fluorescence-based counterscreen for antagonists of the G-protein coupled receptor 7 (GPR7): cell-based dose response assay to identify antagonists of the melanin-concentrating hormone receptor 1 (MCHR1) Set 6.; assay type: functional
Melanin-concentrating hormone receptor 1, sequence (Q99705 whole entry): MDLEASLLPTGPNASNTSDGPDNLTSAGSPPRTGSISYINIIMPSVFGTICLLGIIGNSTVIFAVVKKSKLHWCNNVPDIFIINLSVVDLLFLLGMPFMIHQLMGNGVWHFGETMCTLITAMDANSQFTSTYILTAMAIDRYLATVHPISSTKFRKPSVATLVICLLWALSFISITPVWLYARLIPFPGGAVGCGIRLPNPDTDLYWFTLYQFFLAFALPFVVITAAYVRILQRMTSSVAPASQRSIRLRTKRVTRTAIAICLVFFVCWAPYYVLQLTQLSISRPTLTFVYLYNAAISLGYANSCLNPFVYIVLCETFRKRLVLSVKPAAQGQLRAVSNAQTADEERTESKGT

IC50 [4] | IC50 [6] | IC50 [7] | IC50 [12] | IC50 [13] | SMILES | IC50 [5] | other results
– | – | – | – | – | O=C(C[n+]1cccc(NC(=O)c2ccccc2)c1)c1ccc(NC(=O)c2ccccc2)cc1 | – | AC50 [1]: 17.8 µM (inconclusive); EC50 [2]: 2.76 µM (active); AC50 [3]: 5.62 µM (inconclusive)
> 99 µM (inactive) | > 99 µM (inactive) | > 99 µM (inactive) | – | – | N#Cc1c(NC(=O)c2ccc(Cn3cc(Br)cn3)o2)sc2c1CCCCCC2 | > 99 µM (inactive) | –
– | – | – | – | – | CNC[C@@H]1Oc2ccc(NS(=O)(=O)c3ccc(OC)cc3)cc2CC(=O)N([C@H](C)CO)C[C@@H]1C | – | EC50 [8]: > 54.7 µM (inactive); IC50 [9]: > 89.2 µM (inactive); EC50 [10]: > 54.7 µM (inactive); EC50 [11]: > 55.9 µM (inactive)
> 99 µM (inactive) | > 99 µM (inactive) | > 99 µM (inactive) | – | – | CCCCc1ccc2nc(NC(=O)c3csc4ccccc34)sc2c1 | > 99 µM (inactive) | –
– | – | – | 0.435 µM (active) | 0.435 µM (active) | Cc1nnc(C(C#N)c2c(Cl)cnn(Cc3cccc4ccccc34)c2=O)o1 (centres undefined) | – | –
– | – | – | 1.53 µM (active) | 1.53 µM (active) | N#CC(c1cccc(C(F)(F)F)c1)c1c(Cl)cnn(Cc2cccc3ccccc23)c1=O (centres undefined) | – | –
